Legend:
Sprague-Dawley rats = experiment: Rat pain model (partial sciatic nerve injury, von Frey and plantar tests); type: in vivo; settings: 10 mg/kg p.o. bid
Procedure: The neuropathic pain rat model originally established by Seltzer et al. (Seltzer et al. 1990) is used to evaluate the effect of a test compound against tactile allodynia and contingent thermal hyperalgesia caused by partial sciatic nerve injury (PSNL) induced by sciatic nerve partial ligature.
The test compounds are administered to the treatment groups on a daily basis, starting from post-surgical day 3 (D3), and continued until the end point day on D15.
Gabapentin is used as a positive control. […]
On the test days, pre-dose allodynia was evaluated prior to dosings, and the effects of the administered compounds assessed 2 hours post dosing. […]
In the manual test approach (10 g vF), a pre-calibrated 10 g von Frey hair was used to exert five repeats of filament presentations. […] The results were recorded as percentages of positive reactions within five repeats of filament presentations. […] The actual force application was monitored in real time to ensure its linearity and thus the proper performance of the test in each measurement. The peak force (g), i.e. the lowest force evoking paw withdrawal was recorded, and the absolute paw withdrawal thresholds (PWTs) calculated as medians of triplicate measurements. […]
The contingency of heat hyperalgesia due to PSNL injury was assessed on the test days 2 hours post dosing. […]

C57BL/6 mice = experiment: Bleomycin (BLM) induced pulmonary fibrosis model; type: in vivo; settings: both doses (10 mg/kg and 30 mg/kg, b.i.d. p.o., Day 7 to Day 21); vs. BLM/vehicle control, *p<0.05, Mann-Whitney
Excerpt: The murine bleomycin induced pulmonary fibrosis model is a widely used standard animal model of pulmonary fibrosis (Walters & Kleeberger 2001). Bleomycin administration results in oxidative stress and acute inflammation with the subsequent onset of pulmonary fibrosis. Epithelial cell injury with reactive hyperplasia, basement membrane damage, clusters of spindle-shaped mesenchymal cells resembling fibroblastic foci, and interstitial as well as intra-alveolar fibrosis are histological characteristics of the bleomycin model similar to those of IPF.
For the purpose of the induction of pulmonary fibrosis 8 weeks old C57BL/6 mice with an average weight of ∼25 g randomly grouped in experimental groups were used. […]
Body weight and clinical signs were monitored throughout the experiment.
The main read-outs in the model were: • Blood for PK analysis • Body weight • Lung weight • Histopathological examination of lung tissue • Ashcroft score on slides stained for collagen with Crossman's trichrome, as well as evaluation of collagen deposition using digital image analysis (CaloPix software, TRIBVN Healthcare, France) on collagen-1A1 stained slides (immunohistochemistry, IHC) (Ashcroft et al. 1988; Hübner et al. 2008; Matsuse et al. 1999). […]

hENPP2 = hENPP2 (Homo sapiens, UniProt Q13822); experiment: Human ENPP2 (hENPP2) biochemical assay using LPC as substrate; settings: 150 µM LPC (palmitoyl 16:0), 37°C for 30 min
Outline: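 Enzyme at 1 or 3 µg/mL final in Tris-HCl pH 8.5, NaCl, KCl, CaCl2, fatty-acid-free BSA; reaction started with 150 µM LPC 16:0 (as added), 30 min at 37°C. Released choline developed with choline oxidase/peroxidase/TOOS/4-aminoantipyrine plus EGTA stop, read at 555 nm after 30 min; 1/3 dilutions from 50 µM give IC50.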

Q: Which results are given for Cc1cc(C)cc(Nc2ncc3c(n2)CN([C@@H]2CCN(C(=O)c4cc5nn[nH]c5cc4F)[C@H](C)C2)C3)c1 [Cpd 115, [(2R,4R)-4-[2-(3,5-dimethylanilino)-5,7-dihydropyrrolo[3,4-d]pyrimidin-6-yl]-2-methyl-1-piperidyl]-(6-fluoro-1H-benzotriazol-5-yl)methanone]?
A: allodynia (Sprague-Dawley rats): statistically significant reduction; heat hyperalgesia (Sprague-Dawley rats; plantar test): statistically significant reduction; Ashcroft score (C57BL/6 mice): significantly decrease; IC50 (hENPP2): 0.01 to 100 nM

— patent publication EP3782997A1, “FUSED PYRIMIDINE COMPOUNDS AND PHARMACEUTICAL COMPOSITIONS THEREOF FOR THE TREATMENT OF FIBROTIC DISEASES” (Galapagos N.V., priority 2019, dated 2021)
